Measured values reported in publication PMC7731220, “Pharmacophore Modeling and 3D-QSAR Study of Indole and Isatin Derivatives as Antiamyloidogenic Agents Targeting Alzheimer’s Disease” (Molecules, 2020).

target: T1, Aβ40 (Homo sapiens, UniProt P05067); assay: not given; conditions: supplement, training set; 100 µM; cited from earlier work
T1 sequence (P05067 672-711 limits assumed): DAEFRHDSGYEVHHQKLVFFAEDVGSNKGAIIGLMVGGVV

Compared with O=C1Nc2cc(Cl)c(F)cc2/C1=N/Nc1ccc(Cl)cc1 [Compound S43], O=C1Nc2ccc(Br)cc2/C1=N/Nc1ccc(Cl)cc1 [Compound S44] is higher in “% inhib. @ 100 µM” value: 28±3.7% for the first, 63±4% for the second.

Going from O=C1C(/C=N/Nc2ccc(Cl)cc2)=Nc2ccccc21 [Compound S13] to O=C1C(/C=N/Nc2ccc(Cl)cc2)=Nc2ccc(Br)cc21 [Compound S19], the “% inhib. @ 100 µM” value rises from 33±1.0% to 46±7.0%.

Compared with O=C1Nc2ccccc2/C1=N/Nc1cccc(F)c1 [Compound S42], O=C1Nc2ccccc2/C1=N/Nc1cccc(Cl)c1 [Compound S60] is lower in “% inhib. @ 100 µM” value: 52±0.9% for the first, 39±5% for the second.

First: O=C1Nc2ccc([N+](=O)[O-])cc2/C1=N/Nc1ccc(Cl)cc1 [Compound S45]
Second: COc1ccc2c(c1)/C(=N/Nc1ccc(Cl)cc1)C(=O)N2 [Compound S27]
The “% inhib. @ 100 µM” value of the first is lower: 12±2% for the first, 43±2% for the second.

O=C1Nc2ccccc2/C1=N/Nc1cccc([N+](=O)[O-])c1 [Compound S63] and O=C1Nc2ccccc2/C1=N/Nc1ccc(Cl)cc1 [Compound S61] are within error of each other in “% inhib. @ 100 µM” value: 29±1.2% for the first, 24±4.9% for the second.

CC(C)c1ccc(N/N=C2\C(=O)Nc3ccccc32)cc1 [Compound S64] and O=C1Nc2ccccc2/C1=N/Nc1ccc(OC(F)(F)F)cc1 [Compound S62] are within error of each other in “% inhib. @ 100 µM” value: 64±4% for the first, 57±3% for the second.

Going from COc1ccc2c(c1)/C(=N/Nc1cccc(C(C)(C)C)c1)C(=O)N2 [Compound S32] to COc1ccc2c(c1)/C(=N/Nc1ccc(C(C)(C)C)cc1)C(=O)N2 [Compound S30], the “% inhib. @ 100 µM” value rises from 56±2% to 66±4%.

Going from O=C1Nc2ccccc2/C1=N/Nc1ccccc1Cl [Compound S53] to O=C1Nc2ccc(O)cc2/C1=N/Nc1ccccc1 [Compound S47], the “% inhib. @ 100 µM” value rises from 44±5% to 62±3%.

Cc1ccc(NNC=C2C(=O)c3ccccc3C2=O)cc1 [Compound S2] and O=C1C(=CNNc2ccccc2)C(=O)c2ccccc21 [Compound S1] are within error of each other in “% inhib. @ 100 µM” value: 44±4.0% for the first, 49±2.0% for the second.

First: O=C1Nc2ccc(O)cc2/C1=N/Nc1ccc(O)cc1 [Compound S50]
Second: COc1ccc2c(c1)/C(=N/Nc1ccc(C)cc1)C(=O)N2 [Compound S28]
The “% inhib. @ 100 µM” value of the first is higher: 61±2% for the first, 29±4% for the second.

COc1cc2c(cc1OC)/C(=N/Nc1ccccc1Cl)C(=O)N2 [Compound S37] and COc1ccc2c(c1)/C(=N/Nc1cccc(Cl)c1)C(=O)N2 [Compound S26] are within error of each other in “% inhib. @ 100 µM” value: 70±3% for the first, 72±1% for the second.

First: O=C1C(/C=N/Nc2ccc(Cl)c(Cl)c2)=Nc2ccc(Br)cc21 [Compound S20]
Second: O=c1c(=NNc2ccc(Cl)cc2)c(=O)c2ccccc12 [Compound S7]
The “% inhib. @ 100 µM” value of the first is lower: 23±2.3% for the first, 38±5.3% for the second.

same assay, conditions: supplement, training set; 100 µM; ± SD; cited from earlier work

In the case of CC(C)c1ccc(N/N=C2\C(=O)Nc3c(Br)cccc32)cc1 [Compound S80], the “% inhib. @ 100 µM” value is listed as 1±9.3%.

same assay, conditions: supplement, training set; cited from earlier work

Compared with COc1ccc2c(c1)/C(=N/N=C/c1cccc(Cl)c1)C(=O)N2 [Compound S90], COc1ccc2c(c1)/C(=N/N=C/c1ccc(C(C)C)cc1)C(=O)N2 [Compound S89] is 1.6-fold lower in IC50: 11 µM for the first, 6.7 µM for the second. The second is the more potent here.

First: COc1ccc2c(c1)/C(=N/Nc1nc(-c3cccc(Br)c3)cs1)C(=O)N2 [Compound S72]
Second: COc1ccc2c(c1)/C(=N/Nc1nc(-c3cccc(O)c3)cs1)C(=O)N2 [Compound S70]
The IC50 of the first is 2.5-fold higher: 40 µM for the first, 16 µM for the second.

First: O=C1Nc2cc(O)c(O)cc2/C1=N/Nc1ccccc1Cl [Compound S55]
Second: O=C1Nc2cc(O)c(O)cc2/C1=N/Nc1ccccc1 [Compound S54]
The IC50 of the first is 2.6-fold higher: 11 µM for the first, 4.3 µM for the second.

Going from COc1cc2c(cc1OC)/C(=N/Nc1ccc(Cl)cc1)C(=O)N2 [Compound S39] to COc1cc2c(cc1OC)/C(=N/Nc1ccc(C(C)C)cc1)C(=O)N2 [Compound S40], the IC50 falls from 33 µM to 4.4 µM (7.5-fold). The second is the more potent here.

Compared with COc1ccc2c(c1)/C(=N/N(C)c1ccc(C(C)C)cc1)C(=O)N2C [Compound S73], COc1ccc2c(c1)NC(=O)/C2=N\Nc1ccc(C(C)C)cc1 [Compound S36] is 1.5-fold lower in IC50: 11 µM for the first, 7.1 µM for the second. The second is the more potent here.

Going from O=C1C(/C=N/Nc2ccccc2Cl)=Nc2ccc(Br)cc21 [Compound S17] to O=C1C(/C=N/Nc2ccccc2)=Nc2ccc(Br)cc21 [Compound S14], the IC50 rises from 7.8 µM to 35 µM (4.5-fold).

Going from COc1ccc(N/N=C2\C(=O)Nc3ccc(OC)cc32)cc1 [Compound S33] to COc1ccc2c(c1)/C(=N/Nc1ccc(C(C)(C)C)cc1)C(=O)N2 [Compound S30], the IC50 rises from 3.7 µM to 15 µM (4.1-fold). The first is the more potent here.

O=C1Nc2cc(O)c(O)cc2/C1=N/Nc1ccc(O)cc1 [Compound S59] and O=C1Nc2cc(O)c(O)cc2/C1=N/Nc1ccc(Cl)cc1 [Compound S57] are within 1.5-fold of each other in IC50: 24 µM for the first, 17 µM for the second.

CC(C)c1ccc(NNC=C2C(=O)c3ccccc3C2=O)cc1 [Compound S3] and O=C1C(=CNNc2ccc(Cl)cc2)C(=O)c2ccccc21 [Compound S6] are within 1.5-fold of each other in IC50: 18 µM for the first, 23 µM for the second.

First: Cc1ccc(N/N=C/C2=Nc3ccccc3C2=O)cc1 [Compound S9]
Second: CC(C)c1ccc(N/N=C/C2=Nc3ccccc3C2=O)cc1 [Compound S10]
The IC50 of the first is 2.6-fold higher: 3.6 µM for the first, 1.4 µM for the second.

Going from O=C1C(/C=N/Nc2ccccc2Cl)=Nc2ccccc21 [Compound S11] to O=C1C(/C=N/Nc2cccc(Cl)c2)=Nc2ccccc21 [Compound S12], the IC50 falls from 13 µM to 2.5 µM (5.2-fold).

COc1ccc(N/N=C2\C(=O)Nc3ccccc32)cc1 [Compound S21] and O=C1Nc2ccccc2/C1=N/Nc1ccc(O)cc1 [Compound S46] are within 1.5-fold of each other in IC50: 13 µM for the first, 9.3 µM for the second.

First: Oc1ccc2[nH]cc(/C=N/Nc3ccc(Cl)cc3)c2c1 [Compound S92]
Second: CC(C)c1ccc(N/N=C2\C(=O)Nc3cc(O)ccc32)cc1 [Compound S52]
The IC50 of the first is 3.5-fold higher: 21 µM for the first, 6 µM for the second.

COc1ccc2c(c1)/C(=N/Nc1cccc3ccccc13)C(=O)N2 [Compound S87] and COc1cccc(-c2csc(N/N=C3\C(=O)Nc4ccc(OC)cc43)n2)c1 [Compound S71] are within 1.5-fold of each other in IC50: 28 µM for the first, 34 µM for the second.

Going from Cc1ccc(N/N=C/C2=Nc3ccc(Br)cc3C2=O)cc1 [Compound S15] to CC(C)c1ccc(N/N=C/C2=Nc3ccc(Br)cc3C2=O)cc1 [Compound S16], the IC50 falls from 51 µM to 23 µM (2.2-fold). The second is the more potent here.

Compared with O=C1C(=CNNc2cccc(Cl)c2)C(=O)c2ccccc21 [Compound S5], O=C1C(=CNNc2ccccc2Cl)C(=O)c2ccccc21 [Compound S4] is 1.8-fold higher in IC50: 18 µM for the first, 32 µM for the second.

Compared with COc1ccc(N/N=C2\C(=O)Nc3cc(OC)c(OC)cc32)cc1 [Compound S41], COc1cc2c(cc1OC)/C(=N/Nc1ccccc1)C(=O)N2 [Compound S25] is 2.9-fold higher in IC50: 22 µM for the first, 63 µM for the second.

COc1cc2c(cc1OC)/C(=N/Nc1cccc(Cl)c1)C(=O)N2 [Compound S38] and O=C1Nc2ccc(O)cc2/C1=N/Nc1cccc(Cl)c1 [Compound S48] are within 1.5-fold of each other in IC50: 17 µM for the first, 18 µM for the second.

Going from COc1ccc2c(c1)/C(=N/Nc1nc(CCl)cs1)C(=O)N2 [Compound S67] to CC(C)c1ccc(N/N=C2\C(=O)Nc3ccc(O)cc32)cc1 [Compound S49], the IC50 rises from 13 µM to 21 µM (1.6-fold). The first is the more potent here.

First: O=C1Nc2cc(O)ccc2/C1=N/Nc1ccccc1 [Compound S51]
Second: CC(C)c1ccc(N/N=C2\C(=O)Nc3cc(O)c(O)cc32)cc1 [Compound S58]
The IC50 of the first is 14-fold higher: 22 µM for the first, 1.6 µM for the second. The second is the more potent here.

For O=C1C(/C=N/Nc2cccc(Cl)c2)=Nc2ccc(Br)cc21 [Compound S18], the IC50 is given as 4.4 µM.

same assay, conditions: supplement; 100 µM; value marked (II); cited from earlier work

In the case of O=C1Nc2ccccc2/C1=N/Nc1ccccc1 [Compound S31], the “% inhib. @ 100 µM (II)” value is given as 61±0.7%.

target: T1, Aβ40; assay: Inhibition of Aβ40 self-aggregation (thioflavin T fluorescence, 2% HFIP); conditions: not given

CC(C)c1ccc(NN=Cc2c[nH]c3ccccc23)cc1 [Compound 28, 3-((2-(4-Isopropylphenyl)hydrazono)methyl)-1H-indole] and Clc1cccc(N/N=C/c2c[nH]c3ccccc23)c1 [Compound 30] are within 1.5-fold of each other in IC50: 18 ± 2 µM for the first, 13 ± 2 µM for the second.

Going from COc1ccc2[nH]cc(/C=N/Nc3ccc(Cl)cc3)c2c1 [Compound 33] to COc1ccc2[nH]cc(C=NNc3cccc(Cl)c3)c2c1 [Compound 31, 3-((2-(3-Chlorophenyl)hydrazineylidene)methyl)-5-methoxy-1H-indole], the IC50 falls from 22 ± 2 µM to 9.2 ± 0.7 µM (2.4-fold). The second is the more potent here.

First: O=C1Nc2ccccc2C1=NNc1ccc2ccccc2c1 [Compound 24, 3-(2-(Naphthalen-2-yl)hydrazono)indolin-2-one]
Second: Clc1c(C=NNc2ccccc2)[nH]c2ccc(Br)cc12 [Compound 40, 5-Bromo-3-chloro-2-((2-phenylhydrazineylidene)methyl)-1H-indole]
The IC50 of the first is 2.5-fold lower: 10 ± 2 µM for the first, 25 ± 3 µM for the second. The first is the more potent here.

COc1ccc2[nH]cc(C=NNc3ccnc4cc(Cl)ccc34)c2c1 [Compound 36, 7-Chloro-4-(2-((5-methoxy-1H-indol-3-yl)methylene)hydrazineyl)quinoline] and COc1ccc2c(c1)C(=O)C(=O)N2CCCc1ccccc1 [Compound 12] are within 1.5-fold of each other in IC50: 13 ± 1 µM for the first, 19 ± 4 µM for the second.

same assay, conditions: read-out: Aβ40 Aggregation Inhibition % at 100 μM

Compared with COc1ccc2[nH]cc(C=NNc3ccc(C#N)cc3)c2c1 [Compound 29, 4-(2-((5-Methoxy-1H-indol-3-yl)methylene)hydrazineyl)benzonitrile], COc1ccc2[nH]cc(C=NNc3ccccn3)c2c1 [Compound 34, 5-Methoxy-3-((2-(pyridin-2-yl)hydrazineylidene)methyl)-1H-indole] is lower in inhibition at 100 µM: 56 ± 1% for the first, 20 ± 2% for the second.

First: CC(C)c1ccc(NN=C2C(=O)N(C3CC3)c3ccc(O)cc32)cc1 [Compound 20, 1-Cyclopropyl-5-hydroxy-3-(2-(4-isopropylphenyl)hydrazono)indolin-2-one]
Second: COc1ccc2c(c1)C(=O)C(=O)N2C1CC1 [Compound 14]
The inhibition at 100 µM of the first is lower: 26 ± 3% for the first, 38 ± 5% for the second.

Going from N/N=C1\C(=O)Nc2ccccc21 [Compound 2] to O=C1Nc2ccccc2C1=NNc1cccc2cccnc12 [Compound 25, 3-(2-(Quinolin-8-yl)hydrazineylidene)indolin-2-one], the inhibition at 100 µM rises from 17 ± 2% to 63 ± 5%.

Compared with CC1(C)OC(=O)C(C=C2Nc3ccccc3C2=O)C(=O)O1 [Compound 44], COc1ccc2c(c1)C(=O)C(=O)N2Cc1ccccc1 [Compound 10] is higher in inhibition at 100 µM: 44 ± 1% for the first, 52 ± 1% for the second.

Compound COc1ccc2[nH]cc(/C=N/NC(=O)c3ccc(F)cc3)c2c1 [Compound 45] has an inhibition at 100 µM of 0%.
